# From patent US7556938B1, “Nucleic acids encoding potassium channel interactors” (Millennium Pharmaceuticals, Inc., priority 1998, dated 2009)
# Columns and labels:
# Kv4.3 = assay: Fatty acid modulation of Kv4.3 current (Kv4.3 alone) in Xenopus oocytes; assay type: cell-based, rat; settings: Kv4.3 alone, 10 μM fatty acid, vs no-fatty acid control
# Method: (§1) Frogs underwent no more than two surgeries and surgeries were performed by well established techniques. Frogs were anesthetized with ice. Total cRNA (1-10 ng) was injected into stage IV Xenopus oocytes that were harvested the previous day. The Xenopus oocytes were incubated in ND96 containing (in mM) 96 NaCl, 2 KCl, 1.8 CaCl2, 1 MgCl2, 5 HEPES, pH 7.6, plus (Gentamycin 50 μg/ml) at 18° C. Xenopus oocytes were studied 3-7 days after injection. The two-electrode voltage-clamp recordings were performed in ND96 solution using a TURBO TEC 03 Clamp Amplifier (ALA Scientific Instruments, Westbury, N.Y.). Both electrodes were filled with 3 M KCl and had electrode resistances ranging from 0.2-1 MOhm. The current signals were filtered at 1000 Hz before transferred on a PC (Gateway, Calif.) using the PULSE software (HEKA, Germany). In this Example, the hypothesis that […] were the missing auxiliary subunits that accounted for the above kinetic discrepancy was investigated by expressing Kv4 alone or together with […] in both CHO cells and Xenopus oocytes, and measuring their inactivation time constants (using art known techniques as described in, for example, An et al. (2000) Nature 403:553-6; Keros, S. and […]. Neuroscience 17: 3476-87; and Villarroel, A. and […]. Neuroscience 16:2522-32). The effects of different concentrations of arachidonic acid on Kv4/KChIP current was studied in Xenopus oocytes. Because the physiological concentrations of arachidonic acid are often under 10 μM (Needleman, et al., 1986 Annu Rev Biochem 55:69-102; Anderson and Welsh, 1990, Proc Natl Acad Sci USA 87:7334-8; Meves, 1994, Prog Neurobiol 43:175-86), arachidonic acid was tested in the 1-10 μM range. […] Further, the slope of amplitude reduction as a function of increasing concentrations was very similar with or without the presence of […]. […] Villarroel and Schwarz, (1996) J.
# Kv4.3/KChIP1 = target: T1, Kv4.3/KChIP1 (Rattus norvegicus, UniProt Q62897); assay: Fatty acid modulation of Kv4.3/KChIP1 current in Xenopus oocytes; assay type: cell-based; settings: for block of Kv4.3 peak amplitude: Kv4.3/KChIP1, 10 μM fatty acid, vs no-fatty acid control; for effect on Kv4.3 inactivation time constant: Kv4.3 co-expressed with KChIP1, 10 μM fatty acid
# T1 sequence (Q62897 1-655): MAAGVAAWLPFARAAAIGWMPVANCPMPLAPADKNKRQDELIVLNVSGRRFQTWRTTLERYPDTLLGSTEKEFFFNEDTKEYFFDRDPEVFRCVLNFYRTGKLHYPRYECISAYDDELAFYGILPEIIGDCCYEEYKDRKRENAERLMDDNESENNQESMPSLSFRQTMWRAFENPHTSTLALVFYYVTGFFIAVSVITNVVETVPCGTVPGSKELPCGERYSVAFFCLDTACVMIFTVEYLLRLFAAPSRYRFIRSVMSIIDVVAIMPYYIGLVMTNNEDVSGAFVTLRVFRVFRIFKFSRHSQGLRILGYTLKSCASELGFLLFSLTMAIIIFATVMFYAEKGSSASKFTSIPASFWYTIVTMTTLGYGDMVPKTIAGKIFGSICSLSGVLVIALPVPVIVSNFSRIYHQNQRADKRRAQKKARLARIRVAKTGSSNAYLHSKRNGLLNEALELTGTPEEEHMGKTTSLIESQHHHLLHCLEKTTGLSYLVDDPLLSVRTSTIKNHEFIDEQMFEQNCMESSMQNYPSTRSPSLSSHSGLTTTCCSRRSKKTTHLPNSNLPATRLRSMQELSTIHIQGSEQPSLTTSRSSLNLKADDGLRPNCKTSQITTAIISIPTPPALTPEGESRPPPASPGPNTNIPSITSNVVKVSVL
# T1 sequence (Q8R426 1-216 isoform Q8R426-2 partner): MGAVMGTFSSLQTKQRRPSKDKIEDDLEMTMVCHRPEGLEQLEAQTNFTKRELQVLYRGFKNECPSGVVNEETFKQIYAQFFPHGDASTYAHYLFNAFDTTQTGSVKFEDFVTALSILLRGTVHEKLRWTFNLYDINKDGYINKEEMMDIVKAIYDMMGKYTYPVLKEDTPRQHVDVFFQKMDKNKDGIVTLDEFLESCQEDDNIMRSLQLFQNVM
# Method: as §1
SMILES,block of Kv4.3 peak amplitude (Kv4.3),block of Kv4.3 peak amplitude (Kv4.3/KChIP1),effect on Kv4.3 inactivation time constant (Kv4.3/KChIP1)
"CCCCCCCCC#CCC#CCC#CCCCC(=O)O [ETI, 5,8,11-eicosatriynoic acid]",inhibited significantly,inhibited significantly,reduced Kv4.3 inactivation time constant
"CCCCCC#CCC#CCC#CCC#CCCCC(=O)O [ETYA, 5,8,11,14-eicosatetraynoic acid]",inhibited significantly,inhibited significantly,reduced Kv4.3 inactivation time constant
CCCCC/C=C/C/C=C/CCCCCCCC(=O)O [linolelaidic acid],All values except that of linolelaidic acid/Kv4.3 alone were statistically significant,"small, statistically significant block",did not affect the Kv4.3 inactivation time constant
CCCCC/C=C\C/C=C\C/C=C\CCCCC(=O)O [γ-linolenic acid],inhibited significantly,inhibited significantly,reduced Kv4.3 inactivation time constant
